Reference: patent publication US20100227853A1, “INHIBITORS OF CYCLIC AMP PHOSPHODIESTERASES” (Trustees of Boston College, priority 2008, published 2010)

Experiments:
PDE4A1 = biological target: T1, PDE4A1 (Mus musculus, UniProt O89084); assay: 5FOA growth assay (high throughput screen, ED50) in fission yeast strain expressing PDE4A1; type: cell-based; conditions: 20 uM; PDE 4A1
T1 construct: targets used in the assays are full-length proteins (as opposed to simply the catalytic domain); expressed in transfected cells; host or cells: Schizosaccharomyces pombe, PDE gene integrated in place of cgs2
T1 sequence (O89084 1-610 isoform O89084-2): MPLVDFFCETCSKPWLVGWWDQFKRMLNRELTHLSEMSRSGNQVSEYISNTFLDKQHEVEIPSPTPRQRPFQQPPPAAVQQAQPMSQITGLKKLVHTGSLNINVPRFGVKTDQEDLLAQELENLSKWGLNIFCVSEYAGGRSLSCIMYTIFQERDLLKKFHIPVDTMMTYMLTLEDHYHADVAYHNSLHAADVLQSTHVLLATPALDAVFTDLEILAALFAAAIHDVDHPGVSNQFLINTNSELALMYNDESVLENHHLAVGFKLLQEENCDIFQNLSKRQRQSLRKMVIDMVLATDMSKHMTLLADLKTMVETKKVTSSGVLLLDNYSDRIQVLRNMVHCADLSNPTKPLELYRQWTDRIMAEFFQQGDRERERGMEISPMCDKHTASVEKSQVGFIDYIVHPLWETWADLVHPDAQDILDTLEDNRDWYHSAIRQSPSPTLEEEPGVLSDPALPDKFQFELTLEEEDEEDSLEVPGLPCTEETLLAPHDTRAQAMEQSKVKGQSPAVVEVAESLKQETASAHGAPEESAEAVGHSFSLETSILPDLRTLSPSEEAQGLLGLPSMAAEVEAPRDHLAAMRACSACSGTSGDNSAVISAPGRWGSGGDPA
Experimental: (§1) High throughput drug screens were carried out at the Broad Institute's Chemical Biology Program screening facility (Broad Institute, Cambridge, Mass.). Depending upon the strain, cultures were pregrown to exponential phase in EMM complete medium containing from 0.5 to 2.5 mM cAMP to repress fbp1-ura4 transcription. […] Starting cell concentrations ranged from 0.5×10^5 to 4×10^5 cells/ml depending on the screening strain. […] Other positive control dishes contained 5 mM cAMP in the 5FOA medium. Cultures were grown for 48 hours at 30° C., sealed in an airtight container with moist paper towels to prevent evaporation. Optical densities (OD600) of cultures were measured using a microplate reader. Bioinformatic analysis of the results to determine composite Z scores was performed as previously described^30, 31.
(§2) To determine whether the 5FOA growth phenotype could be exploited for high throughput drug screening, strains expressing PDE2A, PDE4A, PDE4B, or PDE8A were pre-grown in EMM medium containing cAMP and then transferred to 5FOA medium in 384 well microtiter plates in the presence or absence of cAMP. OD600 measurements were taken after 48 hours incubation at 30° C.
(§3) Cells were pregrown in EMM medium [MP Biomedicals (Solon, Ohio), 3% glucose, filter-sterilized to avoid carmelization, which would introduce variability into the optical density of the medium] containing from 0 mM to 2.5 mM cAMP (or either 0.5 mM or 1.0 mM cGMP). This was to repress expression of the fbp1-ura4 reporter prior to exposure of cells to 5FOA medium. Cells were grown at 30° C. to exponential phase (approximately 10^7 cells/ml). […] Starting cell concentrations ranged from 0.5×10^5 to 4×10^5 cells/ml depending on the screening strain. […] Other positive control dishes contained 5 mM cAMP in the 5FOA medium for PDEs that lack appropriate control compounds. Cultures were grown for 48 hours at 30° C., sealed in an airtight container with moist paper towels to prevent evaporation. Optical densities (OD600) of cultures were measured using a microplate reader. Bioinformatic analysis of the results to determine composite Z scores was performed as previously described (1, 3).

[1] = tested on: PDE4A, PDE4B, PDE4D, PDE7A, PDE7B, PDE8A, PDE3A; assay: Summary of PDE inhibitor profile; parameters: key to PDE inhibitor profile (Table 17): (1): Strong PDE4A, PDE4B inhibitor; (2): Strong PDE4A inhibitor; (3): Strong PDE4B, moderate PDE4A inhibitor; (4): Moderate PDE4A, PDE4B inhibitor; (5): Moderate PDE4B inhibitor; key to inhibitor class, Table 15: (1): Strong PDE4A5 inhibitor; (2): Strong PDE4A, 4B inhibitor; Moderate PDE4D inhibitor; (3): Strong PDE4A. 4B inhibitor; (4): Strong PDE4A, 4B, PDE7A inhibitor: Weak PDE4D inhibitor; conditions: for PDE inhibitor profile (Table 17): overall classification, Table 17 footnotes
PDE4B3 = biological target: T2, PDE4B3 (Mus musculus, UniProt Q8VBU5); assay: 5FOA growth assay in fission yeast strain expressing PDE4B3; type: cell-based, Murine; conditions: 20 uM
T2 construct: targets used in the assays are full-length proteins (as opposed to simply the catalytic domain); expressed in transfected cells; host or cells: Schizosaccharomyces pombe, PDE gene integrated in place of cgs2
T2 sequence (Q8VBU5 1-721): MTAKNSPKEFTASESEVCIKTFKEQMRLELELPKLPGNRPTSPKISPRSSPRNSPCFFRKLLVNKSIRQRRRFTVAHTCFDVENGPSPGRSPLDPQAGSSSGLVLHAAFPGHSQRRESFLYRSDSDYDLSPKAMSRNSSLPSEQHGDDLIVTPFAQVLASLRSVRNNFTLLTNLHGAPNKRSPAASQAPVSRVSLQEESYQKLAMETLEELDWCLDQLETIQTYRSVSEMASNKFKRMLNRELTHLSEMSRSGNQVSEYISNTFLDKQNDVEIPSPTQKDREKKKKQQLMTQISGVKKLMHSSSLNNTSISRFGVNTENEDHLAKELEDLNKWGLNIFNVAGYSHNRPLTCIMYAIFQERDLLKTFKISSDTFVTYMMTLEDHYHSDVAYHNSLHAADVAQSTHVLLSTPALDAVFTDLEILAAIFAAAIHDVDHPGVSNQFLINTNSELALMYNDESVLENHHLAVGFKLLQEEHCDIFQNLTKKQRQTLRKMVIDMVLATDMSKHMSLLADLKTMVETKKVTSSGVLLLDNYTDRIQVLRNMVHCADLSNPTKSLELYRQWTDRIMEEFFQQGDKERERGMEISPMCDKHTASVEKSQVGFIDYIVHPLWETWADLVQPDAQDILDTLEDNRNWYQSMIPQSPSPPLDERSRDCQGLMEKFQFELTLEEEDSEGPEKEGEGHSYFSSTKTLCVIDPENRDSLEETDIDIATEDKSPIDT
Experimental: as §1, §2, §3

PDE4A5 = biological target: T3, PDE4A5 (Rattus norvegicus, UniProt P54748); assay: 5FOA growth assay in fission yeast strain expressing PDE4A5; type: cell-based; conditions: 20 uM
T3 construct: targets used in the assays are full-length proteins (as opposed to simply the catalytic domain); expressed in transfected cells; host or cells: Schizosaccharomyces pombe, PDE gene integrated in place of cgs2
T3 sequence (P54748 1-844): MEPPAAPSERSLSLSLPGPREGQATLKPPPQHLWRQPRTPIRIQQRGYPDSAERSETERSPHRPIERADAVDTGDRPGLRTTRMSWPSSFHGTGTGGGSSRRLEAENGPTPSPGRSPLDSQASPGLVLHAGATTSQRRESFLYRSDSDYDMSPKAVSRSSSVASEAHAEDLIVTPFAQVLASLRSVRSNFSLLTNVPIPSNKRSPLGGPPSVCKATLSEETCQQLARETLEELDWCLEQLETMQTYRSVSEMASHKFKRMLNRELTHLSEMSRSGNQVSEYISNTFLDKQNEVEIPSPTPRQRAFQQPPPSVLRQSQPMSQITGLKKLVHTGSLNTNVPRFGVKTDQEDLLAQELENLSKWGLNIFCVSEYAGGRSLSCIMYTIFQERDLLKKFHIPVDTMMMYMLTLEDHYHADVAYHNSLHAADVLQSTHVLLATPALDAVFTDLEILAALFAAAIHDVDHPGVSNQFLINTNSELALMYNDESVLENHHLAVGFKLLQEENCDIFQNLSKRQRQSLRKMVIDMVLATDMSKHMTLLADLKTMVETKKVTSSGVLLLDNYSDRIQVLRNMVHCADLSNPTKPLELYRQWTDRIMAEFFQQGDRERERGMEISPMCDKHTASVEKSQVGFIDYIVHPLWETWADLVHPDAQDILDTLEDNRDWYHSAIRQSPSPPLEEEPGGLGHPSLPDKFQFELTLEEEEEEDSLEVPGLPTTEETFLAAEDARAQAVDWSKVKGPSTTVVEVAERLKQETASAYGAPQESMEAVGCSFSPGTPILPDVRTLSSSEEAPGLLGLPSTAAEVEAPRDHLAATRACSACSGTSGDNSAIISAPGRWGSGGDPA
Experimental: High throughput drug screens were carried out at the Broad Institute's Chemical Biology Program screening facility (Broad Institute, Cambridge, Mass.). Depending upon the strain, cultures were pregrown to exponential phase in EMM complete medium containing from 0.5 to 2.5 mM cAMP to repress fbp1-ura4 transcription. Cells were collected by centrifugation, resuspended in 5FOA medium, and 25 μl were transferred to 384-well microtiter dishes (untreated, with flat clear bottoms) that had been pre-filled with 25 μl 5FOA medium and pre-pinned with 100 nl of compounds (stock solutions were generally 10 mM) from a subset of the Prestwick Bioactive and the Microsource Spectrum compound libraries. Starting cell concentrations ranged from 0.5×10^5 to 4×10^5 cells/ml depending on the screening strain. […] Other positive control dishes contained 5 mM cAMP in the 5FOA medium. Cultures were grown for 48 hours at 30° C., sealed in an airtight container with moist paper towels to prevent evaporation. Optical densities (OD600) of cultures were measured using a microplate reader. Bioinformatic analysis of the results to determine composite Z scores was performed as previously described^30, 31.
Cells were pregrown in EMM medium [MP Biomedicals (Solon, Ohio), 3% glucose, filter-sterilized to avoid carmelization, which would introduce variability into the optical density of the medium] containing from 0 mM to 2.5 mM cAMP (or either 0.5 mM or 1.0 mM cGMP). This was to repress expression of the fbp1-ura4 reporter prior to exposure of cells to 5FOA medium. Cells were grown at 30° C. to exponential phase (approximately 10^7 cells/ml). Cells were collected by centrifugation and resuspended in 5FOA medium, and 25 μl were transferred to 384-well microtiter dishes (untreated, with flat clear bottoms) that had been pre-filled with 25 μl 5FOA medium and pre-pinned with 100 nl of compounds (stock solutions were generally 10 mM). Starting cell concentrations ranged from 0.5×10^5 to 4×10^5 cells/ml depending on the screening strain. […] Other positive control dishes contained 5 mM cAMP in the 5FOA medium for PDEs that lack appropriate control compounds. Cultures were grown for 48 hours at 30° C., sealed in an airtight container with moist paper towels to prevent evaporation. Optical densities (OD600) of cultures were measured using a microplate reader. Bioinformatic analysis of the results to determine composite Z scores was performed as previously described (1, 3).

| SMILES | 1 Assay (20 uM) 4A1 (PDE4A1) | PDE inhibitor profile (Table 17) [1] | 1 Assay (20 uM) 4B3 (PDE4B3; PDE 4B3) | inhibitor class, Table 15 [1] | also measured |
| --- | --- | --- | --- | --- | --- |
| CC(C)Cn1c2ccccc2c2nc3ccccc3nc21 [1422, M02] | 40.53 ND ND ND ND | 1422, M02 (2) | 86.04 ND ND ND ND |  |  |
| COC(=O)C1=C(C)N(CC(C)C)C(=O)/C1=C\c1ccco1 [Compound 27-2] |  |  |  | 27-2 (2) |  |
| COC(=O)C1=C(C)N(c2cccc(C(F)(F)F)c2)C(=O)/C1=C\c1cccs1 [Compound 27-7] |  |  |  | 27-7 (3) |  |
| COC(=O)C1=CN(Cc2ccccc2)C(=O)/C1=C\c1cccs1 [Compound 27-4] |  |  |  | 27-4 (1) |  |
| COC(=O)C1=C(C)N(c2ccccc2Cl)C(=O)/C1=C\c1cccs1 [Compound 27-8] |  |  |  | 27-8 (2) |  |
| CCOC(=O)c1sc2sc(C(=O)OCC)c(-c3ccc(Cl)cc3)c2c1N [2055, N01] |  |  |  |  | 1 Assay (20 uM) 4A5 (PDE4A5): 0.582 ND ND ND ND; 1 Assay (20 uM) 4B3 (PDE4B3): 1.8421 ND ND ND ND |
| COC(=O)C1=C(C)N(c2ccc(F)cc2)C(=O)/C1=C\c1cccs1 [Compound 27-6] |  |  |  | 27-6 (4) |  |
| COC(=O)C1=C(C)N(CC(C)C)C(=O)/C1=C\c1cccs1 [Compound 27-3] |  |  |  | 27-3 (1) |  |
| CCCn1c2ccccc2c2nc3ccccc3nc21 [1422, K02] | 72.21 ND ND ND ND | 1422, K02 (1) | 115.27 ND ND ND ND |  |  |
| COC(=O)C1=C(C)N(c2cccc(C)c2)C(=O)/C1=C\c1cccs1 [Compound 27-5] |  |  |  | 27-5 (2) |  |
| CC(C)n1c2ccccc2c2nc3ccccc3nc21 [1422, I02] | 56.62 ND ND ND ND | 1422, I02 (1) | 99.04 ND ND ND ND |  |  |
| COC(=O)c1sc(SC)c(C#N)c1-c1ccco1 [2055, C21] |  |  |  |  | 1 Assay (20 uM) 4A5 (PDE4A5): 2.07 ND ND ND ND; 1 Assay (20 uM) 4B3 (PDE4B3): 21.4955 ND ND ND ND |
| O=C(O)Cn1c2ccc(Cl)cc2c2nc3ccccc3nc21 [1429, L06] | 29.15 ND ND ND ND | 1429, L06 (4) | 41.77 ND ND ND ND |  |  |
| CCn1c2ccccc2c2nc3ccccc3nc21 [1422, G02] | 70.89 ND ND ND ND | 1422, G02 (1) | 103.69 ND ND ND ND |  |  |
| C=CCn1c2ccccc2c2nc3ccccc3nc21 [1427, P20] | 31.38 ND ND ND ND | 1427, P20 (3) | 103.46 ND ND ND ND |  |  |
| COC(=O)C1=C(C)N(C)C(=O)/C1=C\c1cccs1 [Compound 27-1] |  |  |  | 27-1 (1) |  |
